In paper PMC11460631, “Inhibition of transient receptor potential vanilloid 3 channels by antimalarial hydroxychloroquine alleviates TRPV3-dependent dermatitis” (The Journal of Biological Chemistry, 2024):

Assays:
TRPV3 [1] = target: T1, TRPV3 (Homo sapiens, UniProt Q8NET8); test: Calcium imaging (Fluo-4/AM) of TRPV3-expressing HEK293T cells; format: cell-based
T1 construct: YFP or GFP; expressed in transfected cells; host or cells: HEK293T
T1 sequence (Q8NET8 1-790): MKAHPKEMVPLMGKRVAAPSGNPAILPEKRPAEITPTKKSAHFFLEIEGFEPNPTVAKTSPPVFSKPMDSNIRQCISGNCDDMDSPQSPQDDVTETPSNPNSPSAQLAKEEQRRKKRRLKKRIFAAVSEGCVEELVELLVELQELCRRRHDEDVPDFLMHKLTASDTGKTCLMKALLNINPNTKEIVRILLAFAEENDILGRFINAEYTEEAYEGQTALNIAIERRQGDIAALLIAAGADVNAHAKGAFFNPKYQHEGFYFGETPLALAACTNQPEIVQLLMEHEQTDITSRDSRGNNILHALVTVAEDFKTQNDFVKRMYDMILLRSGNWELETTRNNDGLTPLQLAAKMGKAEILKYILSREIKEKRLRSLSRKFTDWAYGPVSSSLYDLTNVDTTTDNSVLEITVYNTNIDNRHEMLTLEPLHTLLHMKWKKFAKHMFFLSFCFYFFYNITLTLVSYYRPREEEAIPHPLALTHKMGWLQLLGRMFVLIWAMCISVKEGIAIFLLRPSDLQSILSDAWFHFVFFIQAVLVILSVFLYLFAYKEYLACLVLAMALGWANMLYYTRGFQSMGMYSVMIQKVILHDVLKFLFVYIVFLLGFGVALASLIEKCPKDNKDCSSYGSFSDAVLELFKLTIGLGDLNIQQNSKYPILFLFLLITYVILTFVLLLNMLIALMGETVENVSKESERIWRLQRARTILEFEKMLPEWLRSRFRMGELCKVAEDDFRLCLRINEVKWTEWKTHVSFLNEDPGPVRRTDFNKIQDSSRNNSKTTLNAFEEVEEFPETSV
Method: (§1) HEK293T cells are cultured using Dulbecco's modified Eagle's medium containing 10% fetal bovine serum and 1% penicillin-streptomycin in a cell incubator with 5% CO2 at 37 °C. Plasmids of murine TRPV1, TRPV4, TRPM8, and human TRPV3, TRPA1 are labeled with YFP or GFP as indicators for subsequent electrophysiological recordings. Complementary DNA constructs of ion channels were transiently transfected with Lipofectamine 3000 (Invitrogen). And 12 to 18 h after transient transfection, electrophysiological recordings were performed.
Calcium imaging assays were performed as described previously ([37]). Transiently transfected HEK293 cells seeded on 25 mm coverslips were washed twice with an extracellular solution containing 140 mM NaCl, 5 mM KCl, 2 mM MgCl2, 2 mM CaCl2, 10 mM glucose, and 10 mM Hepes (pH 7.4), followed by incubation in 2 ml of extracellular solution supplemented with 2 μM Fluo-4/AM as a Molecular Probes at room temperature for 60 min. Fluorescence images of HEK293T cells were acquired with a Nikon Eclipse Ti2 microscope with an optiMOS charge-coupled device camera controlled by the Ocular Software ([…]; https://www.photometrics.com/products/ocular).

TRPV3 [2] = target: T1, TRPV3; test: Single-channel recordings of TRPV3 in the inside-out configuration; format: cell-based; settings: −80 mV
Method: as §1
Patch-clamp recordings were carried out with a HEKA EPC10 amplifier controlled by PatchMaster software (HEKA; https://www.heka.com/products/products_main.html#soft_pm) ([36]). Patch pipettes were prepared from borosilicate glass and fire-polished to the resistance of 3 to 8 MΩ by P-97 puller for whole-cell recordings. For single-channel recordings, patch pipettes were fire-polished to a higher resistance of 6 to 10 MΩ. Both bath solution and pipette solution contained 130 mM NaCl, 10 mM glucose, 0.2 mM EDTA, and 3 mM Hepes and were adjusted to pH 7.2 to 7.4 with NaOH. Whole-cell recordings and single-channel recordings were performed at ± 80 mV. The current was sampled at 10 kHz and filtered at 2.9 kHz. All recordings were performed at room temperature (25 °C). A gravity-driven system (RSC-200, Bio-Logic) with freely rotated perfusion tubes was used for the perfusion of ligands. Bath and ligand solutions were delivered through separate tubes to minimize the mixing of solutions. Patch pipette holding cells were placed in front of the perfusion tube outlet for perfusion. Igor Pro versions 5.05 and 9.05 (WaveMetrics; https://www.wavemetrics.com/products/igorpro) were used to analyze the data.

CCN(CCO)CCCC(C)Nc1ccnc2cc(Cl)ccc12 (centres unmarked) [HCQ, hydroxychloroquine]
calcium influx, area under the curve (AUC) (TRPV3 [1]; 100 μM HCQ mixed with 1 mM 2-APB): 8.65 ± 0.83 | calcium influx, area under the curve (AUC) (TRPV3 [1]; 300 μM HCQ mixed with 1 mM 2-APB): 0.28 ± 0.05 | TRPV3 channel open probability (Po) (TRPV3 [2]; 50 μM HCQ with 1 mM 2-APB): 0.50 ± 0.03 | TRPV3 channel open probability (Po) (TRPV3 [2]; 100 μM HCQ with 1 mM 2-APB): 0.13 ± 0.04 | single-channel conductance (TRPV3 [2]; HCQ with 1 mM 2-APB, HCQ concentration not stated in the sentence (50 and 100 μM tested)): 37.97 ± 2.96 pS
